# Experimental data: patent US20240043394A1, “PROTEASOME ENHANCERS AND USES THEREOF” (Board of Trustees of Michigan State University, priority 2020, published 2024)
# Key:
# 26S proteasome = 26S proteasome (Homo sapiens, UniProt P25787+P60900); experiment: Fluorogenic small peptide degradation assay with the 26S proteasome (ATP and magnesium chloride added); type: biochemical; conditions: for 26S proteasome activation, in words: concentration range 0-80 μM
# Protocol: The fluorogenic small peptide degradation assay was conducted again, with the 26S proteasome in place of the 20S proteasome. To ensure that the 26S proteasome remained in its fully assembled complex, ATP and magnesium chloride were added.
# [1] = biological target: T1, purified human 20S proteasome, CT-L site (Homo sapiens, UniProt P25787+P60900); experiment: 20S proteasome small peptide assay, Suc-LLVY-AMC chymotryptic-like probe; type: biochemical; conditions: for AC200 CT-L site: concentration needed to double rate vs vehicle; for Max Fold CT-L site: maximum fold rate increase vs vehicle
# T1 construct: purchased Boston Biochem or Life Sensors E-360 or ps020
# Protocol: (§1) In vitro testing, 20S activation: The 20S proteasome activity of the compounds was assessed by utilizing the standard fluorogenic 7-amino-methylcoumarin (AMC) conjugated small peptide substrates that correspond to each of the catalytic sites in the 20S proteasome: chymotryptic-like site (Suc-LLVY-AMC), caspase-like site (Z-LLE-AMC), and trypsin-like site (Boc-LRR-AMC). When the small peptide substrate is degraded by the 20S proteasome, the AMC fluorophore is released and quantified to measure the rate of proteolytic cleavage. The 20S proteasome activity of the small molecules was evaluated at varying concentrations to determine the concentration at which the rate of proteolysis was doubled (i.e. the concentration needed to induce 200% activity) compared to the vehicle control (hereafter named as AC200). Concentrations ranging from 1.25 μM to 80 μM of each of compound were added to wells that contained 0.5 nM of purified human proteasome.
# (§2) The overall enhancement of the rate of proteolysis of the 20S proteasome by a small molecule was first evaluated by adding a combination of all three peptide substrates to the treated sample. The combination of all three substrates represents a more accurate measurement of proteolytic activity of the proteasome because the catalytic sites housed in the β ring of the 20S proteasome communicate through allosteric interactions. For example, when a protein substrate encounters the chymotryptic-like site, a conformational change will occur activating the caspase-like site.^61 The individual contribution of each of the three catalytic sites was subsequently evaluated by adding only the corresponding peptide probes to gain insight into the contribution of each site on the overall enhanced proteolytic activity.
# (§3) The fluorescent output, due to release of the AMC fluorophore, was then converted to the fold increase compared to a vehicle control sample, and the AC200 was calculated. […] (Table 1).
# (§4) AC200 represents the concentration needed to double (e.g., 200%) the rate of substrate degradation compared to vehicle control. Max fold is the maximum fold rate increase compared to vehicle control.
# (§5) 20S Proteasome Small Peptide Assay: Activity assays were carried out in a black flat/clear bottom 96 well plate with a […] volume. Concentrations of the potential activators, varying from 80 μM to 1.25 μM, were added to the well that contained 1 nM 20S proteasome purchased from either Boston Biochem (catalog number E-360) or Life Sensors (catalog number ps020), in a […] buffer at a pH of 7.8. This solution was left to incubate at 37° C. for 15 minutes. For the assay for the overall proteasome activity, 13.33 μM of each small peptide substrate is added. The 96 well plate is then placed into a plate reader (SpectraMax M5e spectrometer) and the plate reader will take a fluorescent reading every 5 minutes for an hour at 37° C. The enzymatic activity of the 20S proteasome is quantified using the fluorescent output at 380-460 nm, which is converted to max fold increase over the untreated sample. The activity of the individual catalytic assays is identical to the assay that assesses the overall activity of the 20S proteasome except only one small peptide substrate is added. To evaluate the activity of the CT-L and the Casp-L sites, 10 μM of the Suc-LLVY-AMC (Boston Biochem S-280) and Z-LLE-AMC (Boston Biochem S-230) were added, respectively. To evaluate the activity of the T-L site, 20 μM of the Boc-LRR-AMC (Boston Biochem S-300) is added.
# [2] = biological target: T2, purified human 20S proteasome (Homo sapiens, UniProt P25787+P60900); experiment: 20S proteasome small peptide assay, combination of all three fluorogenic substrates (CT-L/Casp-L/T-L); type: biochemical; parameters: key to 20S proteasome activation, classed in words: compounds that exhibit a maximum fold enhancement of <2 fold (i.e. <200%) at a concentration >20 μM were considered inactive; conditions: for AC200 CT-L/Casp-L/T-L: concentration needed to double (200%) the rate of substrate degradation vs vehicle; for AC200 CT-L/Casp-L/T-L / Max Fold CT-L/Casp-L/T-L: three probes combined; for Max Fold CT-L/Casp-L/T-L: maximum fold rate increase vs vehicle control
# T2 construct: purchased Boston Biochem or Life Sensors E-360 or ps020
# Protocol: as §1, §2, §3, §4, §5
# [3] = biological target: T3, purified human 20S proteasome, Casp-L site (Homo sapiens, UniProt P25787+P60900); experiment: 20S proteasome small peptide assay, Z-LLE-AMC caspase-like probe; type: biochemical; conditions: for AC200 Casp-L site: concentration needed to double rate vs vehicle
# T3 construct: purchased Boston Biochem or Life Sensors E-360 or ps020
# Protocol: as §1, §2, §3, §4, §5
# [4] = biological target: T4, purified human 20S proteasome, T-L site (Homo sapiens, UniProt P25787+P60900); experiment: 20S proteasome small peptide assay, Boc-LRR-AMC trypsin-like probe; type: biochemical; conditions: for AC200 T-L site: concentration needed to double rate vs vehicle
# T4 construct: purchased Boston Biochem or Life Sensors E-360 or ps020
# Protocol: as §1, §2, §3, §4, §5
# [5] = system: A53T mutant α-synuclein in Hek-293T cells; experiment: In cell degradation of A53T α-synuclein (Western blot); type: cell-based; conditions: 10 hours; for decrease of accumulated A53T α-synuclein: normalized to vehicle
# Protocol: Error bars denote standard deviation. One-way ANOVA statistical analysis was used to determine statistical significance (ns=not significant, *p<0.05, **p<0.01, ***p<0.001, ****p<0.0001) (FIG. 4B).
# Cellular efficacy: The A53T mutation of α-synuclein has been linked to early on-set familial Parkinson's disease and appears to oligomerize faster than the wild-type protein. […] Hek-293T cells were transiently transfected with an inducible Tet-One A53T mutant α-synuclein. The cells were treated with 100 ng/mL of doxycycline to induce the production of the A53T mutant. […] The cells were then lysed and the remaining A53T α-synuclein was visualized and quantified via Western Blotting (FIG. 4, n=4).
# In cell degradation of A53T α-synuclein: In a 6 well plate, Hek293T cells were grown to 80% confluency and then transfected using Xfect biopolymer transfection system with the Tet-One A53T α-synuclein plasmid. 24 hours post transfection, 100 ng/mL of doxycycline was added to induce A53T α-synuclein expression. After 24 hours of protein induction, media was removed that contained the doxycycline and was washed with PBS. Media with the desired drug concentration or DMSO was added and treated for 10 hours. After the cells were treated with the test compounds or DMSO, the cells were scraped and the pelleted (300 g for 5 minutes). The supernatant was taken off and the cell pellet was washed with ice cold PBS and then lysed with RIPA buffer with added protease inhibitors. The cell lysate was incubated for 20 minutes on ice. The lysate was centrifuged for 15 minutes at 500 g and then the supernatant was collected. Concentrated SDS loading buffer was added and the samples were boiled for 10 minutes. The samples were then resolved on a 4-20% Tris-glycine SDS-PAGE gel and immunoblotted with mouse monoclonal anti α-synuclein IgG (1:2000) and anti-mouse HRP-linked IgG (1:2000). Blots were developed with ECL Westem reagent and imaged with an Azure Biosystems 3000 imager.
# [6] = biological target: T2, purified human 20S proteasome; experiment: Digestion of purified α-synuclein by purified 20S proteasome (silver staining); type: biochemical
# Protocol: Quantification of α-synuclein degradation by each compound was done in triplicate. One-way ANOVA statistical analysis was used to determine statistical significance (ns=not significant, *p<0.05, *p<0.01, ***p<0.001, ****p<0.0001).
# In vitro testing, IDP degradation: The ability of our small molecules 20S proteasome activators to degrade pathologically relevant IDPs was evaluated in vitro and in cells. […] Then, purified α-synuclein was added and the digestion was incubated at 37° for 6 hours. An SDS loading buffer was added and the samples were boiled to halt α-synuclein degradation. The percentage of remaining α-synuclein was visualized and quantified using silver staining (FIG. 3). Compound 2 was able to increase the rate of degradation of full length α-synuclein. At the highest concentration (5 μM), α-synuclein was reduced up to 33%.
# Digestion of purified α-synuclein: Degradation assays were carried out in a 50 μL reaction volume of […] buffer at a pH of 7.8, 0.5 μM of purified α-synuclein, and 7.5 nM purified human 20S proteasome. The 20S proteasome was first diluted to 8.56 nM in the Tris-HCl buffer and 1 μL of the test compounds or DMSO was added. This mixture was incubated for 20 minutes at 37° C. After this incubation, 5 μL of a 5 μM stock of α-synuclein was added. The degradation mixture was incubated at 37° C. for 5 hours. The reaction was stopped with addition of concentrated SDS loading buffer and boiled for 10 minutes. After the samples were boiled, they were resolved on a 4-20% Tris-glycine SDS-PAGE gel and visualized using silver staining.
# [7] = maximum fold rate increase vs vehicle
SMILES,"26S proteasome activation, maximum fold increase over the vehicle control (26S proteasome; at higher concentrations (range 0-80 μM)) [fold]","26S proteasome activation, in words (26S proteasome)",AC200 CT-L site [1] [µM],Max Fold CT-L site [1] [fold],AC200 CT-L/Casp-L/T-L [2] [µM],Max Fold CT-L/Casp-L/T-L [2] [fold],AC200 Casp-L site [3] [µM],AC200 T-L site [4] [µM],"20S proteasome activation, classed in words ([2]; concentrations tested 1.25 μM to 80 μM)","decrease of A53T mutant α-synuclein, in words ([5]; 10 μM)","reduction of A53T mutant α-synuclein, in words ([5]; 3 μM (lowest concentration))",decrease of accumulated A53T α-synuclein ([5]; 10 μM) [%],"Max Fold Casp-L site [3, 7] [fold]","Max Fold T-L site [4, 7] [fold]","depletion of α-synuclein over concentration range, in words ([6]; 0.1 μM to 5 μM)","decrease of α-synuclein ([6]; 0.5 μM compound, 37° C., 6 hours) [%]","reduction of α-synuclein ([6]; 5 μM compound, 37° C., 6 hours) [%]"
"CN(C)CCCN1c2ccccc2Sc2ccc(Cl)cc21 [CPZ, chlorpromazine, reference compound]",2,did not enhance the proteolytic activity of the 26S proteasome,7,8,13.5,~4,>80,>80,–,–,–,–,–,–,–,–,–
"Oc1ccc(CN2c3ccccc3Sc3ccc(Cl)cc32)cc1 [Compound 8, 4-((2-Chloro-10H-phenothiazin-10-yl)methyl)phenol]",–,–,>80,–,>80,–,>80,>80,inactive,no decrease,–,–,–,–,–,–,–
"O=C(CCN1c2ccccc2Sc2ccc(Cl)cc21)N(c1ccc(F)cc1)c1ccc(F)cc1 [Compound 19, 3-(2-chloro-10H-phenothiazin-10-yl)-N,N-bis(4-fluorophenyl)propanamide]",–,did not display any 26S proteasome activation,0.7,9.4,0.4,11,1.8,0.3,–,–,reduce the concentration of the A53T mutant α-synuclein significantly,58,9.4,6,clear dose dependent depletion,34,57
"CCOC(=O)[C@]1(c2ccccc2)N=C(c2ccc(OC)cc2)N(Cc2ccccc2)[C@@H]1c1ccc(NCc2ccccc2)cc1 [TCH-165, reference compound]",–,–,–,–,–,–,–,–,–,–,–,40,–,–,–,–,–
